Measured values as given in PMC4890880 (ACS infectious diseases, 2016).
Where two headings read alike, the source gives them in different places.

Tested on: HepG2-A16-CD81EGFP cells
Conditions: for IC50: read-out: Tox_IC50, HepG2 cytotoxicity
[1] = sheet 2nd round, maximal inhibition in dose response
[2] = 2nd round, maximal inhibition in dose series

Row | Compound | IC50 (sheet 2nd round) [µM] | Tox_max_inhibition (%) [1] [%] | IC50 (sheet "2nd round") [µM] | Tox_max_inhibition (%) (sheet "2nd round") | further results
1 | C[C@@H]1CCCCO[C@@H](CN(C)C(=O)Nc2cccc3ccccc23)[C@H](C)CN([C@@H](C)CO)C(=O)c2cc(NC(=O)CCC(F)(F)F)ccc2O1 [BRD-K26887637-001-01-4] | > 10 | 11 |  |  | 
2 | O=C(Cc1ccccc1)N1CC(=O)N2[C@H](CO)[C@H](c3ccc(C#CCc4ccccc4)cc3)[C@H]2C1 [BRD-K27191881-001-01-3] | > 10 | 3.49 |  |  | 
3 | C[C@H]1CN([C@@H](C)CO)C(=O)c2cc(/C=C/c3ccccc3)cnc2O[C@@H]1CN(C)C(=O)C1CCCCC1 [BRD-K27989629-001-01-7] | > 10 | 5 |  |  | 
4 | CC(C)CC#Cc1ccc([C@@H]2[C@H]3CN(C(=O)Nc4ccccc4)CCCCN3[C@H]2CO)cc1 [BRD-K28504277-001-01-8] | 5.23 | 99 |  |  | 
5 | COc1ccccc1NC(=O)Nc1ccc2c(c1)OC[C@@H](C)N(Cc1ccccc1Cl)C[C@@H](C)[C@H](OC)CN(C)C2=O [BRD-K28918058-001-01-5] | > 10 | 13 |  |  | 
6 | CCCNC(=O)N1[C@H](C#N)[C@H](c2ccccc2C2=CCCCC2)[C@@H]1CO [BRD-K29207675-001-01-5] |  |  |  |  | Tox_max_inhibition (%) [2]: 12%; IC50 (2nd round, unit inferred): > 10 µM
7 | COc1ccc2c3c([nH]c2c1)[C@H](CO)N(C(C)=O)CC31CCN(C(=O)Nc2ccccc2F)CC1 [BRD-K30973842-001-02-5] | > 10 | 14 |  |  | 
8 | COc1ccc2c3c([nH]c2c1)[C@@H](CO)N(S(C)(=O)=O)CC31CCN(C(=O)Nc2ccccc2)CC1 [BRD-K31411295-001-01-9] |  |  | > 10 | 17 | 
9 | CN1C(=O)c2cc(NC(=O)c3cccc(F)c3)ccc2OC[C@H]2O[C@H](CC(=O)NCC3CCCCC3)CC[C@H]21 [BRD-K31618614-001-02-1] |  |  | > 10 | 27 | 
10 | CCCNC(=O)N1[C@H](C#N)[C@H](c2ccc(C#Cc3cccc(F)c3)cc2)[C@H]1CO [BRD-K31857539-001-01-9] |  |  | > 10 | 6 | 
11 | O=C(C[C@H]1C[C@@H]2c3cc(NC(=O)c4ccc5c(c4)OCO5)ccc3O[C@@H]2[C@@H](CO)O1)NCc1ccc(Oc2ccccc2)cc1 [BRD-K34781184-001-01-6] | > 10 | 49 |  |  | 
12 | CCCNC(=O)N1[C@H](C#N)[C@@H](c2ccccc2-c2cccc(C)c2)[C@@H]1CO [BRD-K35047119-001-01-1] |  |  |  |  | Tox_max_inhibition (%) [2]: 7%; IC50 (2nd round, unit inferred): > 10 µM
13 | Cc1cc(C(=O)Nc2ccc3c(c2)C(=O)N(C)[C@@H]2CC[C@H](CC(=O)NCc4ccc(-c5ccccc5)cc4)O[C@@H]2CO3)no1 [BRD-K35841161-001-02-2] | > 10 | 37 |  |  | 
14 | CCCC(=O)Nc1ccc2c(c1)OC[C@@H](C)N(Cc1cc(F)ccc1F)C[C@@H](C)[C@H](OC)CN(C)C2=O [BRD-K36104357-001-01-0] |  |  | > 10 | 18 | 
15 | C[C@@H]1CN([C@H](C)CO)C(=O)c2cccc(NC(=O)c3ccc(-c4nccs4)cc3)c2O[C@@H]1CN(C)C(=O)Nc1ccc(C(F)(F)F)cc1 [BRD-K36757984-001-01-6] | > 10 | 2.49 |  |  | 
16 | COc1ccccc1C#Cc1ccc([C@@H]2[C@@H](CO)N3CCCCN(C(=O)C4CCC4)C[C@H]23)cc1 [BRD-K36773541-001-01-9] | > 10 | 6 |  |  | 
17 | CN1C(=O)c2cc(NC(=O)c3ccc(C(F)(F)F)cc3)ccc2OC[C@H]2O[C@@H](CC(=O)NCc3ccc4c(c3)OCO4)CC[C@H]21 [BRD-K38534329-001-01-1] | 5.49 | 57 |  |  | 
18 | COc1ccc(C#Cc2ccc([C@@H]3[C@@H](CO)N4CCCCN(C(=O)Nc5cccc(F)c5)C[C@H]34)cc2)cc1 [BRD-K38867404-001-01-3] | > 10 | 4 |  |  | 
19 | CO[C@@H]1CN(C)C(=O)c2ccc(NC(=O)c3ccc4c(c3)OCO4)cc2OC[C@@H](C)N(Cc2ccc3c(c2)OCO3)C[C@H]1C [BRD-K38901607-001-01-5] |  |  | > 10 | 11 | 
20 | C[C@@H]1CCCCO[C@H](CN(C)S(=O)(=O)c2ccc(F)cc2)[C@@H](C)CN([C@H](C)CO)C(=O)c2cc(N(C)C)ccc2O1 [BRD-K38977317-001-01-6] | > 10 | 6 |  |  | 
21 | Cc1ccc(S(=O)(=O)N(C)C[C@@H]2Oc3cc(C#CC4CCCC4)ccc3S(=O)(=O)N([C@@H](C)CO)C[C@H]2C)cc1 [BRD-K40215908-001-01-2] |  |  |  |  | Tox_max_inhibition (%) [2]: 34%; IC50 (2nd round, unit inferred): > 10 µM
22 | C[C@H]1CCCCO[C@H](CN(C)S(=O)(=O)c2ccccc2)[C@@H](C)CN([C@@H](C)CO)C(=O)c2cc(NC(=O)Nc3ccc4c(c3)OCO4)ccc2O1 [BRD-K40819914-001-01-3] |  |  | > 10 | 8.49 | 
23 | O=C(Nc1ccccc1F)N1CCCCN2[C@H](C1)[C@@H](c1ccc(/C=C/c3ccccc3)cc1)[C@@H]2CO [BRD-K41442469-001-01-2] |  |  | > 10 | 8.49 | 
24 | O=C(Nc1ccccc1F)N1CCCCN2[C@H](C1)[C@H](c1ccc(/C=C/c3ccccc3)cc1)[C@@H]2CO [BRD-K41549807-001-01-5] |  |  | > 10 | 10 | 

Row | Compound | IC50 (sheet 2nd round) [µM] | Tox_max_inhibition (%) [1] [%] | IC50 (sheet "2nd round") [µM] | Tox_max_inhibition (%) (sheet "2nd round") | further results
25 | COc1ccc(-c2ccc([C@H]3[C@@H](C#N)N(C(=O)NC(C)C)[C@@H]3CO)cc2)cc1 [BRD-K42750356-001-01-3] |  |  | > 10 | 10 | 
26 | O=C(Nc1cccc(F)c1)N1CCCCN2[C@H](CO)[C@@H](c3ccc(C#Cc4cccnc4)cc3)[C@@H]2C1 [BRD-K43947390-001-01-2] | > 10 | 5.34 |  |  | 
27 | C[C@H](CO)N1C[C@H](C)[C@H](CN(C)S(=O)(=O)c2ccccc2)OCCCC[C@H](C)Oc2ccc(NC(=O)Nc3ccc4c(c3)OCO4)cc2C1=O [BRD-K43975729-001-01-5] |  |  | > 10 | 7 | 
28 | O=C(C[C@H]1C[C@@H]2c3cc(NS(=O)(=O)c4ccc(F)cc4)ccc3O[C@@H]2[C@@H](CO)O1)N1CCc2ccccc2C1 [BRD-K45723650-001-01-0] |  |  | > 10 | -1 | 
29 | O=C(Nc1ccccc1F)N1CCCCN2[C@H](CO)[C@@H](c3ccc(/C=C/c4ccccc4)cc3)[C@H]2C1 [BRD-K46850496-001-01-8] | > 10 | 11 |  |  | 
30 | COc1ccc2c3c([nH]c2c1)[C@H](CO)N(S(C)(=O)=O)CC31CCN(C(=O)Nc2ccccc2)CC1 [BRD-K47463456-001-01-7] |  |  | > 10 | 13 | 
31 | CCC(=O)N1CC2(CCN(C(=O)Nc3ccccc3F)CC2)c2c([nH]c3cc(OC)ccc23)[C@@H]1CO [BRD-K48749217-001-01-8] | > 10 | 5.53 |  |  | 
32 | CCCC#Cc1ccc2c(c1)O[C@H](CN(C)Cc1ccccn1)[C@H](C)CN([C@@H](C)CO)S2(=O)=O [BRD-K48766892-001-01-4] |  |  | > 10 | 7 | 
33 | CC(C)NC(=O)N1[C@H](C#N)[C@H](c2ccc(C#CC3CCCCC3)cc2)[C@@H]1CO [BRD-K48864121-001-01-0] |  |  |  |  | Tox_max_inhibition (%) [2]: 54%; IC50 (2nd round, unit inferred): 9.68 µM
34 | O=C(C[C@H]1CC[C@@H]2[C@H](COC[C@H](O)CN2Cc2ccc(C(F)(F)F)cc2)O1)N1CCc2ccccc2C1 [BRD-K49087010-001-01-1] |  |  | 9.12 | 60 | 
35 | O=C(Nc1ccccc1F)N1CCCCN2[C@H](CO)[C@@H](c3ccc(/C=C/c4ccccc4)cc3)[C@@H]2C1 [BRD-K50964970-001-01-5] |  |  | > 10 | 8 | 
36 | COc1ccc(C#Cc2ccc3c(c2)O[C@@H](CN(C)C(=O)Nc2cccc(OC)c2)[C@@H](C)CN([C@@H](C)CO)S3(=O)=O)cc1 [BRD-K52609475-001-01-4] |  |  |  |  | Tox_max_inhibition (%) [2]: 6%; IC50 (2nd round, unit inferred): > 10 µM
37 | CCCNC(=O)N1[C@H](C#N)[C@H](c2ccc(C3=CCCCC3)cc2)[C@@H]1CO [BRD-K52785744-001-01-7] |  |  | 7.93 | 50 | 
38 | C[C@@H]1CN([C@H](C)CO)C(=O)c2cc(NC(=O)Nc3ccc4c(c3)OCO4)ccc2O[C@@H](C)CCCCO[C@H]1CN(C)S(=O)(=O)c1ccccc1 [BRD-K54383078-001-01-5] | > 10 | 5.48 |  |  | 
39 | COc1ccc(-c2ccccc2[C@@H]2[C@@H](C#N)N(C(=O)NC3CCCCC3)[C@H]2CO)cc1 [BRD-K55353065-001-01-2] |  |  |  |  | Tox_max_inhibition (%) [2]: 11%; IC50 (2nd round, unit inferred): > 10 µM
40 | COc1ccc(NC(=O)N2CCCCN3[C@H](CO)[C@@H](c4ccc(-c5ccccc5F)cc4)[C@H]3C2)cc1 [BRD-K55569739-001-01-9] | > 10 | 3.75 |  |  | 
41 | C[C@H]1CN([C@@H](C)CO)C(=O)c2cccc(NC(=O)NC3CCCCC3)c2O[C@H]1CN(C)Cc1ccc(C(F)(F)F)cc1 [BRD-K56432748-001-01-8] | > 10 | 10 |  |  | 
42 | O=C(C[C@@H]1C[C@H]2c3cc(NC(=O)c4ccc5c(c4)OCO5)ccc3O[C@H]2[C@H](CO)O1)NCc1ccc(Oc2ccccc2)cc1 [BRD-K60334624-001-01-9] | > 10 | 4.54 |  |  | 
43 | CCCNC(=O)N1[C@H](C#N)[C@H](c2ccc(C#Cc3ccc(F)cc3)cc2)[C@@H]1CO [BRD-K61371184-001-01-2] |  |  | > 10 | 22 | 
44 | COc1ccc(S(=O)(=O)Nc2ccc3c(c2)C(=O)N([C@H](C)CO)C[C@@H](C)[C@@H](CN(C)S(=O)(=O)c2ccc(Cl)cc2)OCCCC[C@@H](C)O3)cc1 [BRD-K63849586-001-01-9] |  |  |  |  | Tox_max_inhibition (%) [2]: 13%; IC50 (2nd round, unit inferred): > 10 µM
45 | Cc1ccc(S(=O)(=O)N2CC[C@H]3[C@H](CO)Nc4ccc(-c5cccc(C(=O)N(C)C)c5)cc4[C@H]32)cc1 [BRD-K64741770-001-01-3] | > 10 | 15 |  |  | 
46 | N#Cc1ccc(-c2ccc(C3[C@@H]4CN(C(=O)Nc5ccc6c(c5)OCO6)C[C@H]3N4)cc2)cc1 (stereo partly shown) [BRD-K65395967-019-01-2] |  |  |  |  | Tox_max_inhibition (%) [2]: 28%; IC50 (2nd round, unit inferred): > 10 µM
47 | O=C(C[C@H]1C[C@H]2c3cc(NC(=O)c4ccc5c(c4)OCO5)ccc3O[C@H]2[C@H](CO)O1)NCc1ccc(Oc2ccccc2)cc1 [BRD-K67774729-001-02-1] | > 10 | 24 |  |  | 
